Biological target: Tyrosine-protein kinase JAK2 (Homo sapiens, UniProt O60674)
Assay: JAK2 Z-Lyte Biochemical Assay
Experimental: The JAK2 Z-Lyte biochemical assay was performed according to manufacturer's instructions (Life Technologies).

Chain of Tyrosine-protein kinase JAK2 (O60674 whole entry): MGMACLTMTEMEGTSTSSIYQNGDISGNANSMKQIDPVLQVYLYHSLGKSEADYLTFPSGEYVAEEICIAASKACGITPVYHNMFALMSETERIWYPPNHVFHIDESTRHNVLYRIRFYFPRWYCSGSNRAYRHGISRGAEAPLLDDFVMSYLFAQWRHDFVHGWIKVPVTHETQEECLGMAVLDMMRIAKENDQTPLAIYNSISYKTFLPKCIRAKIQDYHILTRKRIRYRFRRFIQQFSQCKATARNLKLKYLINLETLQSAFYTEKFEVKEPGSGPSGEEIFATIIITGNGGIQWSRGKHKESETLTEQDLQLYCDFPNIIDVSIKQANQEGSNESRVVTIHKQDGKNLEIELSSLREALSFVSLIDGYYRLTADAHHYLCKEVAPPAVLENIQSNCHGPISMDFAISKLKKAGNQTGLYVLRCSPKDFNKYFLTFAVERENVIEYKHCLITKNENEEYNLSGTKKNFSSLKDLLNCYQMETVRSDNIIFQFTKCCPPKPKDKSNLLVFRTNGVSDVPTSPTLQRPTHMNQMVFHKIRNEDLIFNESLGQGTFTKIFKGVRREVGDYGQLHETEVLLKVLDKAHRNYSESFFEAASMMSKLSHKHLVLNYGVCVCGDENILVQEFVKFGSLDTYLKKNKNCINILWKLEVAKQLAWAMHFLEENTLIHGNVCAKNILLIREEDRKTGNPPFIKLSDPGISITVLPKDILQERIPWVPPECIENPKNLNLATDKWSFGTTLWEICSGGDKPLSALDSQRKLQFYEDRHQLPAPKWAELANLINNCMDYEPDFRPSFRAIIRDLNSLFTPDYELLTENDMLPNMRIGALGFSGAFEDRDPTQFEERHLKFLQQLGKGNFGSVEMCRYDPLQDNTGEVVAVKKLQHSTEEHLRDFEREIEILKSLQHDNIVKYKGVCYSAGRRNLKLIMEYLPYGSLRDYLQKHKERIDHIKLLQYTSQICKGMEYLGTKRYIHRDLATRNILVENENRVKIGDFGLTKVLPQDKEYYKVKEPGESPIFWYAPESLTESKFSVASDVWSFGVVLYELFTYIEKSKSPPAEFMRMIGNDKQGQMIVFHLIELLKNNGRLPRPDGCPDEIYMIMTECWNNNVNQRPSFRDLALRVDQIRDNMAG

IC50: 4.07 µM
Compound: CC(=O)Nc1cc(Oc2ccc3nc(Nc4cccc(C(C)(C)C#N)c4)n4c3c2CCC4)ccn1 [US20240101559, Compound I-2]

From BindingDB's records for patent US20240101559 (Dana-Farber Cancer Institute, 2024)
